{"source": "patent US20020026053A1", "about": "“Novel 3-(substituted) -2- indolinones compounds and use thereof as inhibitors of protein kinase activity” (priority 1997, published 2002)", "data": [{"target": "T1, Met receptor (EGFR/Met chimeric cells, EMR) (Homo sapiens, UniProt P08581)", "T1 construct": "expressed in transfected cells; the other entry of the earlier key: EGFR (P00533, Epidermal growth factor receptor)", "T1 sequence (P08581 with tags, fused parts or gaps)": "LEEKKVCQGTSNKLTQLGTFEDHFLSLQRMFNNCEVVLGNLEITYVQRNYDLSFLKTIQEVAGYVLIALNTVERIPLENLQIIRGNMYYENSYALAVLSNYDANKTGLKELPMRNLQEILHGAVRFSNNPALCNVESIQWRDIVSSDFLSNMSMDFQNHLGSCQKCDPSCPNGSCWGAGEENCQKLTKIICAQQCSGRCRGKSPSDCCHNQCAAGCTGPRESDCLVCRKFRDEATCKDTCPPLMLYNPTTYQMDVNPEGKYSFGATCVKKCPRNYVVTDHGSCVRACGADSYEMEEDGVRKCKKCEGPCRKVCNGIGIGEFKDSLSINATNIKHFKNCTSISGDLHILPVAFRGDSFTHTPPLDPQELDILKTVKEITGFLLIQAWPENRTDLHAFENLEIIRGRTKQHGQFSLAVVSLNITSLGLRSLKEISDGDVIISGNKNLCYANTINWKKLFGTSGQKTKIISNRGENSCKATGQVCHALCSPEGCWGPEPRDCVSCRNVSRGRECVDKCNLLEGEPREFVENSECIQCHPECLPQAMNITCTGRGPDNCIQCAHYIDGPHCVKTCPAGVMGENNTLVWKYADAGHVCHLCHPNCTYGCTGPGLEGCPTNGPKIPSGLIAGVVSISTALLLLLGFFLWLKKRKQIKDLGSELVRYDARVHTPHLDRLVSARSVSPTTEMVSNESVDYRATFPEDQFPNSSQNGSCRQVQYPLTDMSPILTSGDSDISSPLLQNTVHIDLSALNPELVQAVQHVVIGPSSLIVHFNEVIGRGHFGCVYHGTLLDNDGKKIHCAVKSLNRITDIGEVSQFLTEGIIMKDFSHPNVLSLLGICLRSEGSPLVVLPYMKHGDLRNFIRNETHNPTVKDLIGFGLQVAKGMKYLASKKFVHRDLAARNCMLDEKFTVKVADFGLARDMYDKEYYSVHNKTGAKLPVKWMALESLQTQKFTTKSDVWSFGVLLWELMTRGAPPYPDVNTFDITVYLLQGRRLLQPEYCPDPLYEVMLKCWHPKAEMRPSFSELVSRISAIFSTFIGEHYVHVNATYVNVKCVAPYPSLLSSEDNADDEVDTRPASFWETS", "assay": "Met Autophosphorylation Assay", "format": "biochemical", "outline": "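Met phosphorylation was measured by capture ELISA. Lysates (90 μg/100 μl, HNTG plus 1 mM PMSF) from transiently transfected EGFR/Met chimera (EMR) cells were bound for 60 min at room temperature to wells holding rabbit anti-Met (C-28) on goat anti-rabbit coat. Phosphotyrosine was the read-out.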", "units": {"Met Kinase % Inhibition (P.130)": "%"}, "values": [{"compound": "Cc1c(O)ccc(C=C2C(=O)Nc3c(Br)cc(Br)c(C)c32)c1O", "note": "[10718/H09]", "Met Kinase % Inhibition (P.130)": 73.6}, {"compound": "Cc1c(Br)cc(Br)c2c1C(=Cc1ccco1)C(=O)N2", "note": "[10718/H10]", "Met Kinase % Inhibition (P.130)": 19.9}, {"compound": "Cc1c(Br)cc(Br)c2c1C(=Cc1ccc([N+](=O)[O-])o1)C(=O)N2", "note": "[10718/H11]", "Met Kinase % Inhibition (P.130)": 44.9}, {"compound": "CCOc1ccc(C=C2C(=O)Nc3c(Br)cc(Br)c(C)c32)cc1OC", "note": "[10719/H02]", "Met Kinase % Inhibition (P.130)": 36.9}, {"compound": "Cc1c(Br)cc(Br)c2c1C(=Cc1ccc(O)c(O)c1)C(=O)N2", "note": "[10719/H03]", "Met Kinase % Inhibition (P.130)": 67.0}, {"compound": "COc1ccc(C=C2C(=O)Nc3c(Br)cc(Br)c(C)c32)c(OC)c1", "note": "[10719/H04]", "Met Kinase % Inhibition (P.130)": 0.7}, {"compound": "CCc1c(C)[nH]c(C=C2C(=O)Nc3c(Br)cc(Br)c(C)c32)c1C", "note": "[10719/H05]", "Met Kinase % Inhibition (P.130)": 20.9}, {"compound": "COc1cc(OC)c(C=C2C(=O)Nc3c(Br)cc(Br)c(C)c32)c(OC)c1", "note": "[10719/H06]", "Met Kinase % Inhibition (P.130)": 1.3}, {"compound": "CCN(CC)c1ccc(C=C2C(=O)Nc3c(Br)cc(Br)c(C)c32)c(O)c1", "note": "[10734/H05]", "Met Kinase % Inhibition (P.130)": 51.1}, {"compound": "Cc1c(Br)cc(Br)c2c1C(=Cc1ccc([N+](=O)[O-])cc1)C(=O)N2", "note": "[10734/H06]", "Met Kinase % Inhibition (P.130)": 32.7}, {"compound": "Cc1c(Br)cc(Br)c2c1C(=Cc1cc(Br)cc(Br)c1O)C(=O)N2", "note": "[10734/H07]", "Met Kinase % Inhibition (P.130)": 84.9}, {"compound": "Cc1c(Br)cc(Br)c2c1C(=Cc1cccc(F)c1O)C(=O)N2", "note": "[10734/H08]", "Met Kinase % Inhibition (P.130)": 64.8}, {"compound": "Cc1c(Br)cc(Br)c2c1C(=Cc1ccc(O)c(Br)c1)C(=O)N2", "note": "[10734/H09]", "Met Kinase % Inhibition (P.130)": 78.4}, {"compound": "Cc1c(Br)cc(Br)c2c1C(=Cc1ccc(C(C)(C)C)cc1)C(=O)N2", "note": "[10734/H10]", "Met Kinase % Inhibition (P.130)": 23.5}, {"compound": "Cc1c(Br)cc(Br)c2c1C(=Cc1ccc(Br)s1)C(=O)N2", "note": "[10734/H11]", "Met Kinase % Inhibition (P.130)": 28.7}, {"compound": "Cc1ccccc1C=C1C(=O)Nc2c(Br)cc(Br)cc21", "note": "[10735/A02]", "Met Kinase % Inhibition (P.130)": 26.9}, {"compound": "O=C1Nc2c(Br)cc(Br)cc2C1=Cc1ccc(F)c(F)c1", "note": "[10735/A03]", "Met Kinase % Inhibition (P.130)": 53.0}, {"compound": "O=C1Nc2c(Br)cc(Br)cc2C1=Cc1cc(F)cc(F)c1", "note": "[10735/A04]", "Met Kinase % Inhibition (P.130)": 48.0}, {"compound": "O=C1Nc2c(Br)cc(Br)cc2C1=Cc1cccc(C(F)(F)F)c1", "note": "[10735/A05]", "Met Kinase % Inhibition (P.130)": 46.1}, {"compound": "O=C1Nc2c(Br)cc(Br)cc2C1=Cc1cc(C(F)(F)F)cc(C(F)(F)F)c1", "note": "[10735/A06]", "Met Kinase % Inhibition (P.130)": 58.9}, {"compound": "N#Cc1ccccc1C=C1C(=O)Nc2c(Br)cc(Br)cc21", "note": "[10735/A07]", "Met Kinase % Inhibition (P.130)": 61.9}, {"compound": "O=C1Nc2c(Br)cc(Br)cc2C1=Cc1c(F)cccc1F", "note": "[10735/A08]", "Met Kinase % Inhibition (P.130)": 50.8}, {"compound": "O=C1Nc2c(Br)cc(Br)cc2C1=Cc1cccc2ccccc12", "note": "[10735/A09]", "Met Kinase % Inhibition (P.130)": 19.2}, {"compound": "O=C1Nc2c(Br)cc(Br)cc2C1=Cc1ccc(Cl)cc1Cl", "note": "[10735/A10]", "Met Kinase % Inhibition (P.130)": 41.4}, {"compound": "O=C1Nc2c(Br)cc(Br)cc2C1=Cc1ccc(-c2ccccc2)cc1", "note": "[10735/A11]", "Met Kinase % Inhibition (P.130)": 24.5}, {"compound": "Cc1ccccc1C=C1C(=O)Nc2ccc(I)cc21", "note": "[10735/B02]", "Met Kinase % Inhibition (P.130)": 72.4}, {"compound": "O=C1Nc2ccc(I)cc2C1=Cc1ccc(F)c(F)c1", "note": "[10735/B03]", "Met Kinase % Inhibition (P.130)": 73.3}, {"compound": "O=C1Nc2ccc(I)cc2C1=Cc1cc(F)cc(F)c1", "note": "[10735/B04]", "Met Kinase % Inhibition (P.130)": 79.0}, {"compound": "O=C1Nc2ccc(I)cc2C1=Cc1cccc(C(F)(F)F)c1", "note": "[10735/B05]", "Met Kinase % Inhibition (P.130)": 83.7}, {"compound": "O=C1Nc2ccc(I)cc2C1=Cc1cc(C(F)(F)F)cc(C(F)(F)F)c1", "note": "[10735/B06]", "Met Kinase % Inhibition (P.130)": 82.7}, {"compound": "N#Cc1ccccc1C=C1C(=O)Nc2ccc(I)cc21", "note": "[10735/B07]", "Met Kinase % Inhibition (P.130)": 56.0}, {"compound": "O=C1Nc2ccc(I)cc2C1=Cc1c(F)cccc1F", "note": "[10735/B08]", "Met Kinase % Inhibition (P.130)": 53.4}, {"compound": "O=C1Nc2ccc(I)cc2C1=Cc1cccc2ccccc12", "note": "[10735/B09]", "Met Kinase % Inhibition (P.130)": 46.8}, {"compound": "O=C1Nc2ccc(I)cc2C1=Cc1ccc(Cl)cc1Cl", "note": "[10735/B10]", "Met Kinase % Inhibition (P.130)": 73.3}, {"compound": "O=C1Nc2ccc(I)cc2C1=Cc1ccc(-c2ccccc2)cc1", "note": "[10735/B11]", "Met Kinase % Inhibition (P.130)": 69.0}, {"compound": "Cc1ccccc1C=C1C(=O)Nc2ccc(Br)c(C)c21", "note": "[10735/C02]", "Met Kinase % Inhibition (P.130)": 27.7}, {"compound": "Cc1c(Br)ccc2c1C(=Cc1ccc(F)c(F)c1)C(=O)N2", "note": "[10735/C03]", "Met Kinase % Inhibition (P.130)": 66.2}, {"compound": "Cc1c(Br)ccc2c1C(=Cc1cc(F)cc(F)c1)C(=O)N2", "note": "[10735/C04]", "Met Kinase % Inhibition (P.130)": 75.8}, {"compound": "Cc1c(Br)ccc2c1C(=Cc1cccc(C(F)(F)F)c1)C(=O)N2", "note": "[10735/C05]", "Met Kinase % Inhibition (P.130)": 59.4}, {"compound": "Cc1c(Br)ccc2c1C(=Cc1cc(C(F)(F)F)cc(C(F)(F)F)c1)C(=O)N2", "note": "[10735/C06]", "Met Kinase % Inhibition (P.130)": 47.0}, {"compound": "Cc1c(Br)ccc2c1C(=Cc1ccccc1C#N)C(=O)N2", "note": "[10735/C07]", "Met Kinase % Inhibition (P.130)": 49.1}, {"compound": "Cc1c(Br)ccc2c1C(=Cc1c(F)cccc1F)C(=O)N2", "note": "[10735/C08]", "Met Kinase % Inhibition (P.130)": 49.8}, {"compound": "Cc1c(Br)ccc2c1C(=Cc1cccc3ccccc13)C(=O)N2", "note": "[10735/C09]", "Met Kinase % Inhibition (P.130)": 24.1}, {"compound": "Cc1c(Br)ccc2c1C(=Cc1ccc(Cl)cc1Cl)C(=O)N2", "note": "[10735/C10]", "Met Kinase % Inhibition (P.130)": 37.8}, {"compound": "Cc1c(Br)ccc2c1C(=Cc1ccc(-c3ccccc3)cc1)C(=O)N2", "note": "[10735/C11]", "Met Kinase % Inhibition (P.130)": 14.1}, {"compound": "CNS(=O)(=O)c1ccc2c(c1)C(=Cc1ccccc1C)C(=O)N2", "note": "[10735/D02]", "Met Kinase % Inhibition (P.130)": 32.6}, {"compound": "CNS(=O)(=O)c1ccc2c(c1)C(=Cc1ccc(F)c(F)c1)C(=O)N2", "note": "[10735/D03]", "Met Kinase % Inhibition (P.130)": 41.2}, {"compound": "CNS(=O)(=O)c1ccc2c(c1)C(=Cc1cc(F)cc(F)c1)C(=O)N2", "note": "[10735/D04]", "Met Kinase % Inhibition (P.130)": 25.6}, {"compound": "CNS(=O)(=O)c1ccc2c(c1)C(=Cc1cccc(C(F)(F)F)c1)C(=O)N2", "note": "[10735/D05]", "Met Kinase % Inhibition (P.130)": 33.7}, {"compound": "CNS(=O)(=O)c1ccc2c(c1)C(=Cc1cc(C(F)(F)F)cc(C(F)(F)F)c1)C(=O)N2", "note": "[10735/D06]", "Met Kinase % Inhibition (P.130)": 36.9}, {"compound": "CNS(=O)(=O)c1ccc2c(c1)C(=Cc1ccccc1C#N)C(=O)N2", "note": "[10735/D07]", "Met Kinase % Inhibition (P.130)": 33.7}, {"compound": "CNS(=O)(=O)c1ccc2c(c1)C(=Cc1c(F)cccc1F)C(=O)N2", "note": "[10735/D08]", "Met Kinase % Inhibition (P.130)": 25.6}, {"compound": "CNS(=O)(=O)c1ccc2c(c1)C(=Cc1cccc3ccccc13)C(=O)N2", "note": "[10735/D09]", "Met Kinase % Inhibition (P.130)": 23.0}, {"compound": "CNS(=O)(=O)c1ccc2c(c1)C(=Cc1ccc(Cl)cc1Cl)C(=O)N2", "note": "[10735/D10]", "Met Kinase % Inhibition (P.130)": 35.0}, {"compound": "CNS(=O)(=O)c1ccc2c(c1)C(=Cc1ccc(-c3ccccc3)cc1)C(=O)N2", "note": "[10735/D11]", "Met Kinase % Inhibition (P.130)": 18.5}, {"compound": "Cc1ccccc1C=C1C(=O)Nc2ccc(S(=O)(=O)Nc3ccc(C(F)(F)F)cc3)cc21", "note": "[10735/E02]", "Met Kinase % Inhibition (P.130)": 13.2}, {"compound": "O=C1Nc2ccc(S(=O)(=O)Nc3ccc(C(F)(F)F)cc3)cc2C1=Cc1ccc(F)c(F)c1", "note": "[10735/E03]", "Met Kinase % Inhibition (P.130)": 71.8}, {"compound": "O=C1Nc2ccc(S(=O)(=O)Nc3ccc(C(F)(F)F)cc3)cc2C1=Cc1cc(F)cc(F)c1", "note": "[10735/E04]", "Met Kinase % Inhibition (P.130)": 85.2}, {"compound": "O=C1Nc2ccc(S(=O)(=O)Nc3ccc(C(F)(F)F)cc3)cc2C1=Cc1cccc(C(F)(F)F)c1", "note": "[10735/E05]", "Met Kinase % Inhibition (P.130)": 74.8}]}]}
